Data published in US6465457B1 (priority 1991, dated 2002).
Read-outs that look alike come from different tables or passages of the source.

Columns and labels:
Assay type in all cases: in vivo
[1] = tested on: Septoria nodorum (Wheat); test: Foliar fungal disease test on plants: Septoria nodorum (Wheat); conditions: one or two days before inoculation
Procedure: (§1) The compounds were tested against a variety of foliar fungal diseases of plants. The technique employed was as follows.
(§2) The plants were grown in John Innes Potting Compost (No 1 or 2) in 4 cm diameter minipots. The test compounds were formulated either by bead milling with aqueous DISPERSOL T or as a solution in acetone or acetone/ethanol which was diluted to the required concentration immediately before use. […] The sprays were applied to maximum retention and the root drenches to a final concentration equivalent to approximately 40 ppm a.i. in dry soil. TWEEN 20 was added to give a final concentration of 0.05% when the sprays were applied to cereals.
(§3) For most of the tests the compounds were applied to the soil (roots) or to the foliage (by spraying) one or two days before the plant was inoculated with the disease. An exception was the test on Erysiphe graminis in which the plants were inoculated 24 hours before treatment. Foliar pathogens were applied by spray as zoosporangial suspensions onto the leaves of test plants. After inoculation, the plants were put into an appropriate environment to allow infection to proceed and then incubated until the disease was ready for assessment. The period between inoculation and assessment varied from four to fourteen days according to the disease and environment.
(§4) The disease level present (i.e. leaf area covered by actively sporulating disease) on each of the treated plants was recorded using the following assessment scale:
(§5) Each assessment was then expressed as a percentage of the level of disease present on the untreated control plants. This calculated value is referred to as a POCO (Percentage of Control) value. An example of a typical calculation is as follows:
(§6) Disease level on untreated control=90
(§7) Disese level on treated plant=30 [formula]
(§8) This calculated POCO value is then rounded to the nearest of the values in the 9-point assessment scale shown above. In this particular example, the POCO value would be rounded to 30. If the calculated POCO falls exactly mid-way between two of the points, it is rounded to the lower of the two values.

[2] = tested on: Puccinia recondita (Wheat); test: Foliar fungal disease test on plants: Puccinia recondita (Wheat)
Procedure: as §1
The plants were grown in John Innes Potting Compost (No 1 or 2) in 4 cm diameter minipots. The test compounds were formulated either by bead milling with aqueous DISPERSOL T or as a solution in acetone or acetone/ethanol which was diluted to the required concentration immediately before use. The formulations (100 ppm active ingredient) were sprayed on to the foliage or applied to the roots of the plants in the soil. The sprays were applied to maximum retention and the root drenches to a final concentration equivalent to approximately 40 ppm a.i. in dry soil. TWEEN 20 was added to give a final concentration of 0.05% when the sprays were applied to cereals.
as §3, with “For most of the tests the compounds were applied to the soil (roots) or to the foliage (by spraying) one or two days before the plant was inoculated with the disease.” left out
as §4, §5, §6, §7, §8

[3] = tested on: Erysiphe graminis tritici (Wheat); test: Foliar fungal disease test on plants: Erysiphe graminis tritici (Wheat); conditions: 100 ppm a.i. foliar spray or root drench (approx. 40 ppm in dry soil); plants inoculated 24 hours before treatment
Procedure: as §1, §2, §3, §4, §5, §6, §7, §8

[4] = tested on: Plasmopara viticola (Vines); test: Foliar fungal disease test on plants: Plasmopara viticola (Vines); conditions: one or two days before inoculation
Procedure: as §1, §2, §3, §4, §5, §6, §7, §8

[5] = tested on: Pyricularia oryzae (Rice); conditions: one or two days before inoculation
[6] = tested on: Thanatephorus cucumeries (Rice); test: Foliar fungal disease test on plants: Thanatephorus cucumeries (Rice); conditions: one or two days before inoculation
Procedure: as §1, §2, §3, §4, §5, §6, §7, §8

[7] = tested on: Venturia inaequalis (Apples); test: Foliar fungal disease test on plants: Venturia inaequalis (Apples); conditions: one or two days before inoculation
Procedure: as §1, §2, §3, §4, §5, §6, §7, §8

[8] = tested on: Phytophthora infestans (Tomatoes); conditions: one or two days before inoculation
[9] = 100 ppm a.i. foliar spray or root drench (approx. 40 ppm in dry soil)
[10] = 100 ppm a.i. foliar spray or root drench (approx. 40 ppm in dry soil), one or two days before inoculation
[11] = 100 ppm a.i. foliar spray or root drench, plants inoculated with Puccinia recondita 48 hours before treatment
[12] = 10 ppm foliar spray only, one or two days before inoculation

Row | SMILES | POCO (Percentage of Control) disease level, Septoria nodorum (Wheat) [1, 9] | POCO (Percentage of Control) disease level, Puccinia recondita (Wheat) [2, 10] | POCO (Percentage of Control) disease level, Erysiphe graminis tritici (Wheat) [3] | POCO (Percentage of Control) disease level, Plasmopara viticola (Vines) [4, 9] | POCO (Percentage of Control) disease level, Pyricularia oryzae (Rice) [5, 9] | POCO (Percentage of Control) disease level, Thanatephorus cucumeries (Rice) [6, 9] | POCO (Percentage of Control) disease level, Puccinia recondita (Wheat) [2, 11] | POCO (Percentage of Control) disease level, Venturia inaequalis (Apples) [7, 9] | POCO (Percentage of Control) disease level, Phytophthora infestans (Tomatoes) [8, 9] | POCO (Percentage of Control) disease level, Septoria nodorum (Wheat) ([1]; 10 ppm foliar spray only) | POCO (Percentage of Control) disease level, Puccinia recondita (Wheat) [2, 12] | POCO (Percentage of Control) disease level, Venturia inaequalis (Apples) ([7]; 10 ppm foliar spray only) | POCO (Percentage of Control) disease level, Plasmopara viticola (Vines) ([4]; 10 ppm foliar spray only) | POCO (Percentage of Control) disease level, Pyricularia oryzae (Rice) ([5]; 10 ppm foliar spray only) | POCO (Percentage of Control) disease level, Thanatephorus cucumeries (Rice) ([6]; 10 ppm foliar spray only) | POCO (Percentage of Control) disease level, Phytophthora infestans (Tomatoes) ([8]; 10 ppm foliar spray only)
1 | COC=C(C(=O)OC)c1ccccc1OC(=O)NCc1ccccc1 [4 (17)] | 60 (60 = 30.1-60% disease present) | 1 (1 = 0.1-1% disease present) | 10 (10 = 5.1-10% disease present) | 0 (0 = 0% disease present) | 5 (5 = 3.1-5% disease present) | 0 (0 = 0% disease present) | – | – | – | – | – | – | – | – | – | –
2 | CCN(C(=O)OCc1ccccc1C(=COC)C(=O)OC)c1cccc([N+](=O)[O-])c1F [106 (3)] | 60 (60 = 30.1-60% disease present) | – | 30 (30 = 20.1-30% disease present) | 0 (0 = 0% disease present) | – | 0 (0 = 0% disease present) | 60+ (60 = 30.1-60% disease present) | 0 (0 = 0% disease present) | 90 (90 and 94 = 60.1-100% disease present) | – | – | – | – | – | – | –
3 | COC=C(C(=O)OC)c1ccccc1COC(=S)Nc1ccccc1SC [21 (6)] | 0 (0 = 0% disease present) | 0 (0 = 0% disease present) | 3 (3 = 1.1-3% disease present) | 0 (0 = 0% disease present) | 0 (0 = 0% disease present) | 0 (0 = 0% disease present) | – | – | – | – | – | – | – | – | – | –
4 | COC=C(C(=O)OC)c1ccccc1COC(=O)N(C)c1ccccc1C#N [29 (2)] | 30 (30 = 20.1-30% disease present) | – | 0 (0 = 0% disease present) | 0 (0 = 0% disease present) | 0 (0 = 0% disease present) | 30 (30 = 20.1-30% disease present) | 20+ (20 and 24 = 10.1-20% disease present) | 0 (0 = 0% disease present) | – | – | – | – | – | – | – | –
5 | COC=C(C(=O)OC)c1ccccc1COC(=O)Nc1cccc(OC)c1 [7 (1)] | 90 (90 and 94 = 60.1-100% disease present) | 10 (10 = 5.1-10% disease present) | 5 (5 = 3.1-5% disease present) | 60 (60 = 30.1-60% disease present) | 0 (0 = 0% disease present) | 60 (60 = 30.1-60% disease present) | – | – | 90 (90 and 94 = 60.1-100% disease present) | – | – | – | – | – | – | –
6 | COC=C(C(=O)OC)c1ccccc1COC(=O)N(C)c1ccccc1[N+](=O)[O-] [15 (2)] | 5 (5 = 3.1-5% disease present) | – | – | 0 (0 = 0% disease present) | 0 (0 = 0% disease present) | – | 0+ (0 = 0% disease present) | 0 (0 = 0% disease present) | 60 (60 = 30.1-60% disease present) | – | – | – | – | – | – | –
7 | COC=C(C(=O)OC)c1ccccc1COC(=O)Nc1ccccc1[N+](=O)[O-] [15 (1)] | 0 (0 = 0% disease present) | – | – | 0 (0 = 0% disease present) | 5 (5 = 3.1-5% disease present) | – | 90+ (90 and 94 = 60.1-100% disease present) | 0 (0 = 0% disease present) | 3 (3 = 1.1-3% disease present) | – | – | – | – | – | – | –
8 | COC=C(C(=O)OC)c1ccccc1COC(=S)Nc1ccccc1 [5 (6)] | – | – | – | – | – | – | – | – | – | 90 (90 and 94 = 60.1-100% disease present) | 90 (90 and 94 = 60.1-100% disease present) | 0 (0 = 0% disease present) | 90 (90 and 94 = 60.1-100% disease present) | 60 (60 = 30.1-60% disease present) | 0 (0 = 0% disease present) | 90 (90 and 94 = 60.1-100% disease present)
9 | COC=C(C(=O)OC)c1ccccc1COC(=S)Nc1ccc(Cl)cc1 [11 (6)] | – | – | – | – | – | – | – | – | – | 60 (60 = 30.1-60% disease present) | 20 (20 and 24 = 10.1-20% disease present) | – | 0 (0 = 0% disease present) | 20 (20 and 24 = 10.1-20% disease present) | 90 (90 and 94 = 60.1-100% disease present) | –
10 | COC=C(C(=O)OC)c1ccccc1COC(=O)N(C)c1cc(F)ccc1F [27 (2)] | 0 (0 = 0% disease present) | – | – | 0 (0 = 0% disease present) | 0 (0 = 0% disease present) | 0 (0 = 0% disease present) | 0+ (0 = 0% disease present) | 0 (0 = 0% disease present) | 5 (5 = 3.1-5% disease present) | – | – | – | – | – | – | –
11 | COC=C(C(=O)OC)c1ccccc1COC(=S)Nc1ccc([N+](=O)[O-])cc1 [9 (6)] | 90 (90 and 94 = 60.1-100% disease present) | 90 (90 and 94 = 60.1-100% disease present) | 90 (90 and 94 = 60.1-100% disease present) | 90 (90 and 94 = 60.1-100% disease present) | 20 (20 and 24 = 10.1-20% disease present) | 90 (90 and 94 = 60.1-100% disease present) | – | – | – | – | – | – | – | – | – | –
12 | COC=C(C(=O)OC)c1ccccc1COC(=O)Nc1ccccc1C#N [29 (1)] | 60 (60 = 30.1-60% disease present) | – | 5 (5 = 3.1-5% disease present) | 20 (20 and 24 = 10.1-20% disease present) | 0 (0 = 0% disease present) | 5 (5 = 3.1-5% disease present) | 30+ (30 = 20.1-30% disease present) | 0 (0 = 0% disease present) | – | – | – | – | – | – | – | –
